Results taken from article PMC10119282, “Molecular characterization of AIFM2/FSP1 inhibition by iFSP1-like molecules” (Cell Death & Disease, 2023).

What was measured:
[1] = system: Pfa1 Gpx4−/− cell line overexpressing hFSP1, mFSP1 and hFSP1 F360L mutants; assay: BODIPY 581/591 C11 oxidation (flow cytometry); type: cell-based, murine; settings: iFSP1 3 µM for 3 h; all conditions, highest for hFSP1 WT
Description: In total, 150,000 cells per well were seeded on 6-well dishes one day prior to the experiment. […] Cells were incubated with C11-BODIPY (581/591) (1 μM) for 30 min at 37 °C before they were harvested by trypsinisation. Subsequently, cells were resuspended in 500 μL of fresh PBS (DPBS, Gibco) and analyzed using a 488-nm laser excitation laser and fluorescence recorded on a (FACS Canto II, BD Biosciences). Data was collected from the FL1 detector (C11-BODIPY, Invitrogen) with a 502LP and 530/30 BP filter. At least 20,000 events were analyzed per sample. Data was analyzed using FlowJo Software version 10.8.1.

[2] = system: Pfa1 Gpx4−/− overexpressing mFSP1 L360F; assay: Cell viability (Alamar blue), mFSP1 L360F; type: cell-based, murine
Description: Cell Lines. 4-hydroxytamoxifen (TAM)-inducible Gpx4^−/− murine immortalized fibroblasts (Pfa1) were reported previously. These cells harbor two loxP-flanked Gpx4 alleles and stably express TAM inducible Cre recombinase allowing the genetic deletion of Gpx4 at will. For all experiments using Gpx4^−/− the well were treated with 4-hydroxitamoxifen (TAM) 1 µM. All cells were cultured with were cultured in DMEM-high glucose (4.5 g glucose/L) with 10% fetal bovine serum (FBS), Glutamax, and 1% penicillin/streptomycin (Gibco, Thermo Fischer) at 37 °C with 5% CO2 and verified to be negative for mycoplasma.
Cell viability assays. Alamar Blue method: Cells were seeded on 96-well plates (2000 cells per well) and treated with the compounds RSL3, iFSP1 and (liproxstatin-1) after plating. Cell viability was assessed 48 h (unless stated otherwise) after treatment using Alamar Blue as an indicator of viable cells. Alamar blue solution was made by dissolving of 1 g resazurin sodium salt (Thermo Fischer) in 200 mL sterile PBS and sterile filtrated through a 0.22 µm filter. Stock solutions were stored at 4 °C. The working solution was made freshly by adding 200 µL of the stock solution to 25 mL growth media. After 2–4 h incubation time, viability was estimated by measuring the fluorescence using a 540/35 excitation filter and a 590/20 emission on a Spark® microplate reader (Tecan, Zürich, Switzerland).

SMILES: Cc1ccc(-c2c(C#N)c(N)n3c(nc4ccccc43)c2C#N)cc1 [iFSP1]
- BODIPY-C11 oxidation induced by iFSP1 [1]: small increase
- iFSP1-mediated inhibition of FSP1 (ferroptosis induction) [2]: restored the iFSP1-mediated inhibition of mFSP1
- IC50 ([2]; Mus musculus, x axis iFSP1 (μM), read-out: IC50 (dose-response toxicity)): 0.95 µM
